Experimental data taken from article PMC12084297, “Cytoplasmic connexin43-microtubule interactions promote glioblastoma stem-like cell maintenance and tumorigenicity” (Cell Death & Disease, 2025).

How the values were obtained:
Notch1 = Notch1 protein expression, immunoblot, VTC-001 GSCs; format: cell-based, human; conditions: 50 μM, 24 h
Method: Cells were lysed in RIPA buffer (0.1% sodium dodecyl sulphate, 50 mM Tris pH 7.4, 150 mM NaCl, 1 mM EDTA, 1% Triton X-100, 1% deoxycholic acid, 200 μM Na3VO4, and 1 mM NaF) supplemented with Halt^TM Protease and Phosphatase Inhibitor Cocktail (Thermo Fisher). Lysates were sonicated prior to centrifugation at 4 °C for 20 min at 10,000 x g. Protein concentration was quantified using the DC protein assay (Bio-Rad Laboratories) and a standard curve obtained with increasing concentrations of Bovine Serum Albumin (BSA; Fisher Scientific). Protein samples were normalized to 20 μg total protein per lane and resolved by SDS-PAGE electrophoresis. 4X Bolt LDS sample buffer supplemented with 400 mM DTT (final concentration 1X Bolt LDS with 100 mM DTT) was added to samples before heating at 70 °C for 10 min. SDS-PAGE was run using NuPAGE Bis-Tris 4%–12% gradient gels (Thermo Fisher) with MES or MOPS running buffer according to manufacturer’s instructions. Spectra™ Multicolor Protein Ladder (Thermo Fisher) or Precision Plus Protein™ Kaleidoscope™ Prestained Protein Standards (Bio-Rad Laboratories) were included as protein ladders on the same gels. […] Membranes were imaged on a ChemiDoc™ imaging system, and analyzed with Image Lab software (Bio-Rad Laboratories). […]

α-tubulin = assay: Co-immunoprecipitation with α-tubulin antibody: peptide interaction with α-tubulin; format: binding, human; conditions: VTC-037 GSCs, 50 μM, 24 h, cross-linked (DTBP); compared to antennapedia alone or JM2-scrambled; NeutrAvidin-HRP detection
Method: Prior to lysis, cross-linking was completed by incubating cells in DTBP (dimethyl 3,3’-dithiobispropionimidate; 2 mM in PBS) for 30 min at 37 °C followed by a glycine quench (100 mM glycine in PBS) for 15 min at room temperature. Cross-linked samples were lysed in RIPA buffer supplemented with Halt^TM Protease and Phosphatase Inhibitor Cocktail as described above, but without sonication. Co-immunoprecipitation (co-IP) assays were also performed without cross-linking; non-cross-linked samples were lysed using a co-IP lysis buffer (0.5% Triton X-100, 50 mM Tris HCl, 150 mM NaCl, 1 mM EDTA, 1 mM EGTA, 1 mM DTT, 0.1 mM Na3VO4, and 1 mM NaF) supplemented with Halt^TM Protease and Phosphatase Inhibitor Cocktail, without sonication. Protein concentration was quantified using the DC protein assay and a standard curve obtained with increasing concentrations of BSA, and 500 μg of total protein was used per reaction for co-IP. Inputs were removed prior to co-IP and denatured in Bolt LDS sample buffer as described above. Remaining protein lysates were incubated with Protein G Sepharose^TM 4 Fast Flow beads (GE Healthcare) for pre-clearance for 30 min at 4 °C. Samples were incubated with 2 μg of mouse anti-α-tubulin (MilliporeSigma, T6199) for cross-linked samples or mouse anti-Cx43 antibody (EMD Millipore; MAB3067) for non-cross-linked samples for 90 min at 4 °C. […]

VTC-034 GSCs = assay: MTS viability, VTC-034 GSCs; format: cell-based, human; conditions: VTC-034 adherent GSCs, 10, 50 or 100 μM, 4 days
Method: Cells were plated in 96-well plates (2000–5000 cells per well) and treated the following day with TMZ (10, 50, or 100 μM), antennapedia, JM2-scrambled, or JM2 (10, 50, or 100 μM). After 4 days, cell viability was monitored following addition of MTS reagent (Promega) according to manufacturer’s instructions. The absorbance at 490 nm was measured using a SpectraMax i3 or iD3 microplate reader (Molecular Devices). For the caspase 3/7 activity assay, cells were plated in 96-well plates (2000 cells per well) and treated with TMZ or peptides as described above. The activity of caspase 3/7 was measured after 48 h using the Caspase-Glo® 3/7 assay (Promega) following the manufacturer’s instructions. Fold change of caspase 3/7 activity was defined as the ratio of caspase 3/7 luminescence in treated cells compared to controls.

VFFKGVKDRVKGRSD [JM2]
Notch1 protein expression (Notch1): significantly decreased Notch1 expression at the protein level | Interaction of peptide with α-tubulin (co-IP) (α-tubulin): robustly interacted with α-tubulin | GSC survival (MTS) (VTC-034 GSCs): significantly decreased VTC-001, VTC-034, and VTC-037 GSC survival when cultured as adherent cells in a dose-dependent manner
